Results from PMC12090182, “Repurposing of the RIPK1-Selective Benzo[1,4]oxazepin-4-one Scaffold for the Development of a Type III LIMK1/2 Inhibitor” (ACS Chemical Biology, 2025).
Where two headings read alike, the source gives them in different places.

Assays:
Assay in all cases: biochemical
Type in all cases: binding
[1] = molecular target: 468 kinases including some pathogenic mutants (Homo sapiens, UniProt Q96L34); settings: MARK4 (Entrez MARK4), 1000 nM; read-out: Percent Control
[2] = molecular target: 468 kinases including some pathogenic mutants (Homo sapiens, UniProt Q12852); settings: DLK (Entrez MAP3K12), 100 nM; read-out: Percent Control
[3] = molecular target: 468 kinases including some pathogenic mutants (Homo sapiens, UniProt Q9HBY8); settings: SGK2 (Entrez SGK2), 100 nM; read-out: Percent Control
[4] = molecular target: 468 kinases including some pathogenic mutants (Homo sapiens, UniProt Q9UQB9); settings: AURKC (Entrez AURKC), 100 nM; read-out: Percent Control
[5] = molecular target: 468 kinases including some pathogenic mutants (Homo sapiens, UniProt Q86Y07); settings: VRK2 (Entrez VRK2), 1000 nM; read-out: Percent Control
[6] = molecular target: 468 kinases including some pathogenic mutants (Homo sapiens, UniProt P10721, D816V); settings: read-out: Percent Control
[7] = molecular target: 468 kinases including some pathogenic mutants (Homo sapiens, UniProt P48729); settings: CSNK1A1 (Entrez CSNK1A1), 100 nM; read-out: Percent Control
[8] = molecular target: 468 kinases including some pathogenic mutants (Homo sapiens, UniProt P00533, G719S); settings: read-out: Percent Control
[9] = molecular target: 468 kinases including some pathogenic mutants (Homo sapiens, UniProt Q9UPZ9); settings: ICK (Entrez ICK), 100 nM; read-out: Percent Control
[10] = molecular target: 468 kinases including some pathogenic mutants (Homo sapiens, UniProt P36888, D835Y); settings: read-out: Percent Control
[11] = molecular target: 468 kinases including some pathogenic mutants (Homo sapiens, UniProt P51955); settings: NEK2 (Entrez NEK2), 1000 nM; read-out: Percent Control
[12] = molecular target: 468 kinases including some pathogenic mutants (Homo sapiens, UniProt Q02750); settings: MEK1 (Entrez MAP2K1), 1000 nM; read-out: Percent Control
[13] = molecular target: 468 kinases including some pathogenic mutants (Homo sapiens, UniProt P31152); settings: ERK4 (Entrez MAPK4), 100 nM; read-out: Percent Control
[14] = molecular target: 468 kinases including some pathogenic mutants (Homo sapiens, UniProt P53350); settings: PLK1 (Entrez PLK1), 100 nM; read-out: Percent Control
[15] = molecular target: 468 kinases including some pathogenic mutants (Homo sapiens, UniProt Q8IYT8); settings: ULK2 (Entrez ULK2), 1000 nM; read-out: Percent Control
[16] = molecular target: 468 kinases including some pathogenic mutants (Homo sapiens, UniProt Q9H3Y6); settings: SRMS (Entrez SRMS), 1000 nM; read-out: Percent Control
[17] = molecular target: 468 kinases including some pathogenic mutants (Homo sapiens, UniProt P16234); settings: PDGFRA (Entrez PDGFRA), 100 nM; read-out: Percent Control
[18] = molecular target: 468 kinases including some pathogenic mutants (Homo sapiens, UniProt P36888); settings: FLT3-autoinhibited (Entrez FLT3), 100 nM; read-out: Percent Control
[19] = molecular target: 468 kinases including some pathogenic mutants (Homo sapiens, UniProt Q15139); settings: PRKD1 (Entrez PRKD1), 100 nM; read-out: Percent Control
[20] = molecular target: 468 kinases including some pathogenic mutants (Homo sapiens, UniProt Q9NY57); settings: YANK2 (Entrez STK32B), 1000 nM; read-out: Percent Control
[21] = molecular target: 468 kinases including some pathogenic mutants (Homo sapiens, UniProt O75676); settings: 1000 nM, read-out: Percent Control
[22] = molecular target: 468 kinases including some pathogenic mutants (Homo sapiens, UniProt Q96PY6); settings: NEK1 (Entrez NEK1), 1000 nM; read-out: Percent Control
[23] = molecular target: 468 kinases including some pathogenic mutants (Homo sapiens, UniProt Q13131); settings: AMPK-alpha1 (Entrez PRKAA1), 100 nM; read-out: Percent Control
[24] = molecular target: 468 kinases including some pathogenic mutants (Homo sapiens, UniProt O43353); settings: RIPK2 (Entrez RIPK2), 100 nM; read-out: Percent Control
[25] = molecular target: 468 kinases including some pathogenic mutants (Homo sapiens, UniProt P37023); settings: ACVRL1 (Entrez ACVRL1), 100 nM; read-out: Percent Control
[26] = molecular target: 468 kinases including some pathogenic mutants (Homo sapiens, UniProt O15197); settings: EPHB6 (Entrez EPHB6), 100 nM; read-out: Percent Control
[27] = molecular target: 468 kinases including some pathogenic mutants (Homo sapiens, UniProt P14616); settings: INSRR (Entrez INSRR), 100 nM; read-out: Percent Control
[28] = molecular target: 468 kinases including some pathogenic mutants (Homo sapiens, UniProt P57059); settings: SIK (Entrez SIK1), 100 nM; read-out: Percent Control
Chain of 468 kinases including some pathogenic mutants (Homo sapiens, UniProt P57059) (P57059 whole entry, change not shown): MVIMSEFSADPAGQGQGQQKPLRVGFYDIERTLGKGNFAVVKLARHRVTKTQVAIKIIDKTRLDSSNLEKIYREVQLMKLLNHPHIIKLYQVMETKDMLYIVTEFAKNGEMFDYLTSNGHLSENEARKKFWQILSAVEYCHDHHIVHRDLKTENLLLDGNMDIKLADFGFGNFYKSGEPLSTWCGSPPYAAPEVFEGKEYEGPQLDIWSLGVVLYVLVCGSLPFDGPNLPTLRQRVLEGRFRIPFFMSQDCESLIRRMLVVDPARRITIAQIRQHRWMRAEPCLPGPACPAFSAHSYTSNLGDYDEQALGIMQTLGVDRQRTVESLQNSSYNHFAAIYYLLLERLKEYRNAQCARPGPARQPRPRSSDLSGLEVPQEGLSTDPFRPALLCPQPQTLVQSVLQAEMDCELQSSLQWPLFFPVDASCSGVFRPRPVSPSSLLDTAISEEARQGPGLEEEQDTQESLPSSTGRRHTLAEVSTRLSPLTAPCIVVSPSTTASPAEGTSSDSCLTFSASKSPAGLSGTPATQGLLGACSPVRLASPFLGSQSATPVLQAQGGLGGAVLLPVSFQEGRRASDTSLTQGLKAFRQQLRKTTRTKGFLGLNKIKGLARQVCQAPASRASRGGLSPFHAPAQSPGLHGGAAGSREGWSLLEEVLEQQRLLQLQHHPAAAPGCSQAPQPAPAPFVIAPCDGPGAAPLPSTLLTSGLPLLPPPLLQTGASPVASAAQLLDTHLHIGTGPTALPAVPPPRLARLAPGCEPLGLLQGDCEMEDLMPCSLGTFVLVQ

Chain of 468 kinases including some pathogenic mutants (Homo sapiens, UniProt O75676) (O75676 whole entry, change not shown): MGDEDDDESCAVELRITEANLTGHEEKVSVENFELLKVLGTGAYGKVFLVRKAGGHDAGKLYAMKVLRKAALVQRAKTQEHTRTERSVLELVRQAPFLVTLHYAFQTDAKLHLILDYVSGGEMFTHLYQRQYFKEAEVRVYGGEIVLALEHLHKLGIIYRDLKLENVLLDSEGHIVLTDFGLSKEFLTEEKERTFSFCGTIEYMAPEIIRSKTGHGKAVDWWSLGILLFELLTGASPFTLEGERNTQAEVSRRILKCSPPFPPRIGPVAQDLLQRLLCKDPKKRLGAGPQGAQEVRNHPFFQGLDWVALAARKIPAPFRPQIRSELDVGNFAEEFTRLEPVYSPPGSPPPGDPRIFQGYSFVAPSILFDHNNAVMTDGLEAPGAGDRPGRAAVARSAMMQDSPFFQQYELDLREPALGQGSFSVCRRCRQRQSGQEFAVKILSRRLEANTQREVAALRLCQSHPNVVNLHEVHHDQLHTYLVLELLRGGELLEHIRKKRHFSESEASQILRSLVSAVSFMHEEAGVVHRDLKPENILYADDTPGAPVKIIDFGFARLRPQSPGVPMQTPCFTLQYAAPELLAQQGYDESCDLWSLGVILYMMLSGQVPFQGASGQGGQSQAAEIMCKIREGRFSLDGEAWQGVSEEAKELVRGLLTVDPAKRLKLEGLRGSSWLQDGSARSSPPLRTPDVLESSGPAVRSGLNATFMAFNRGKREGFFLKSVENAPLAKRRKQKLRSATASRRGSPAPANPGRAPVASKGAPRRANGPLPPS
Chain of 468 kinases including some pathogenic mutants (Homo sapiens, UniProt P53350) (P53350 whole entry, change not shown): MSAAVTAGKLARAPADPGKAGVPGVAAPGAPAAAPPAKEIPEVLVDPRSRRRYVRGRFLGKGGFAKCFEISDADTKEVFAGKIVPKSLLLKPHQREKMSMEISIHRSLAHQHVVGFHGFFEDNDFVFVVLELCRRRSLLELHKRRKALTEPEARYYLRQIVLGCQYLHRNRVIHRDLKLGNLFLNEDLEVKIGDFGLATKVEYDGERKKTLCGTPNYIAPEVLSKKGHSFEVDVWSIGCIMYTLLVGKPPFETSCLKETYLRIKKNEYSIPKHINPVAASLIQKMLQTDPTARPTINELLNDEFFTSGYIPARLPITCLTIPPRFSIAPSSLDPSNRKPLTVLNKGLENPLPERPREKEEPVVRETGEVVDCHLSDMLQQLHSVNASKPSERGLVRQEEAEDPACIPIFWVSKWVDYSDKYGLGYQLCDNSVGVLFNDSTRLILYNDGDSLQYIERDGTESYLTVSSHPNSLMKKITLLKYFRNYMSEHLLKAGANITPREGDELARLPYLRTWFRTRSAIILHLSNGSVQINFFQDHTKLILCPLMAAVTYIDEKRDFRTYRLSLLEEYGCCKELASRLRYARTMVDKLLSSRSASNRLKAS
Chain of 468 kinases including some pathogenic mutants (Homo sapiens, UniProt P51955) (P51955 whole entry, change not shown): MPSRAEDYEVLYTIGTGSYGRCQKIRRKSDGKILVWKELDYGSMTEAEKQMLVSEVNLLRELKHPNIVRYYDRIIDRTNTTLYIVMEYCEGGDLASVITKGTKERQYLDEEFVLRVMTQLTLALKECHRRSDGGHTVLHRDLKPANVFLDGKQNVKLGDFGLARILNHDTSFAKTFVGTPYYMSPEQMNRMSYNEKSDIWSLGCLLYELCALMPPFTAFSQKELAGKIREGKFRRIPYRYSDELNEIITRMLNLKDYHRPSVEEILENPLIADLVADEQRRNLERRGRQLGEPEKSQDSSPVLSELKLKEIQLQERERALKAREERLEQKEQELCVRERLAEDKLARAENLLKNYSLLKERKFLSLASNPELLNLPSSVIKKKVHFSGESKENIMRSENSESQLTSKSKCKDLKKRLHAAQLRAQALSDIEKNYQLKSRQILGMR
Chain of 468 kinases including some pathogenic mutants (Homo sapiens, UniProt P16234) (P16234 24-1089, change not shown): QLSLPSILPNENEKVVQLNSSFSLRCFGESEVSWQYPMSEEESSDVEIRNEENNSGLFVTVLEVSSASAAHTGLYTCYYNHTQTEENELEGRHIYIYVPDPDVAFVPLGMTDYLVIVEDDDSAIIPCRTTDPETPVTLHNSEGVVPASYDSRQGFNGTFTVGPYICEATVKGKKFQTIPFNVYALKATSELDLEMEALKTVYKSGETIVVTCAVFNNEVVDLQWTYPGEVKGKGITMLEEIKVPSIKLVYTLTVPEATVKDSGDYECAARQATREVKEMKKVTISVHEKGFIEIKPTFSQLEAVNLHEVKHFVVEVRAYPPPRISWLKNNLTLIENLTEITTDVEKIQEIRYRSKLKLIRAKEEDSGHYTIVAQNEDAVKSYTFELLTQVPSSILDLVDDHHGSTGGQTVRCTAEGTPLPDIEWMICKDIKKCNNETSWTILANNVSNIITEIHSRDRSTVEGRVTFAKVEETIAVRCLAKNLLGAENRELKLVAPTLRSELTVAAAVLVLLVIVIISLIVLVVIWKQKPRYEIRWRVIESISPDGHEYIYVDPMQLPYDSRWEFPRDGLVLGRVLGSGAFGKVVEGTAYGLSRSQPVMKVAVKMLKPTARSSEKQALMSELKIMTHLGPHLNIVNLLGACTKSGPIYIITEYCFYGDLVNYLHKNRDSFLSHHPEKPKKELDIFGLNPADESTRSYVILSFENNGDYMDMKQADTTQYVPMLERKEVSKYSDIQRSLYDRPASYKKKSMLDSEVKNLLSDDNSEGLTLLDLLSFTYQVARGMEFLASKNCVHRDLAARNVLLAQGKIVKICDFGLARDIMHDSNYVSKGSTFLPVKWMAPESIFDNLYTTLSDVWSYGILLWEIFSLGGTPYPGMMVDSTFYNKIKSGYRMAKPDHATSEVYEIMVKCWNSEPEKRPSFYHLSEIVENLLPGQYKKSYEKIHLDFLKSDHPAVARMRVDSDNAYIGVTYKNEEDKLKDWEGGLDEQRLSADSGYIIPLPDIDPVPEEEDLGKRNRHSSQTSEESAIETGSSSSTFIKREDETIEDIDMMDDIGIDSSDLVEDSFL
Chain of 468 kinases including some pathogenic mutants (Homo sapiens, UniProt P31152) (P31152 whole entry, change not shown): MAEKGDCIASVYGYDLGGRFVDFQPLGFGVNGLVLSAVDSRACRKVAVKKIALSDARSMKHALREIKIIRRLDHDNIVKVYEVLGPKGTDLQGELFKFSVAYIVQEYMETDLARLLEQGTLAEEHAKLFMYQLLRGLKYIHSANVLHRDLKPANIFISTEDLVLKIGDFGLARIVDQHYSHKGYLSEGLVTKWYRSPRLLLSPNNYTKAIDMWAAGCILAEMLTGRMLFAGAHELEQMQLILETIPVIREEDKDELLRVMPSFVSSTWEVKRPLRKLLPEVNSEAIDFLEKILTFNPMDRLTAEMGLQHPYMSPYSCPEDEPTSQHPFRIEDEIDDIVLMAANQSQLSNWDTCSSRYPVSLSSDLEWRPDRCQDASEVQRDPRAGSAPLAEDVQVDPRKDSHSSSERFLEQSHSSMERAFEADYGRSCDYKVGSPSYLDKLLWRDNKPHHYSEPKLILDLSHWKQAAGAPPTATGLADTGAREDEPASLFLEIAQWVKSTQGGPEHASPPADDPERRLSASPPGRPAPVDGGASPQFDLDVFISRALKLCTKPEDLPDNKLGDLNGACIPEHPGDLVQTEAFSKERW
Chain of 468 kinases including some pathogenic mutants (Homo sapiens, UniProt P48729) (P48729 whole entry, stated change not applied): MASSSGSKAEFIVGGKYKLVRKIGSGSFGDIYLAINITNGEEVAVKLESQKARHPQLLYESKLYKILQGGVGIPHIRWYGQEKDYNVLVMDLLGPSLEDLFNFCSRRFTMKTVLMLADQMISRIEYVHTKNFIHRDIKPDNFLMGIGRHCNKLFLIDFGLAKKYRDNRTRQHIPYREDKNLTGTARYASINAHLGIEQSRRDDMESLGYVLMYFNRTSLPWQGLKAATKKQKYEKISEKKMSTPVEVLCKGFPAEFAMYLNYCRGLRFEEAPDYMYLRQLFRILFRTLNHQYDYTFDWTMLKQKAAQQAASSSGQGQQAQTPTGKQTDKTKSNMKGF
Chain of 468 kinases including some pathogenic mutants (Homo sapiens, UniProt Q9UQB9) (Q9UQB9 whole entry, change not shown): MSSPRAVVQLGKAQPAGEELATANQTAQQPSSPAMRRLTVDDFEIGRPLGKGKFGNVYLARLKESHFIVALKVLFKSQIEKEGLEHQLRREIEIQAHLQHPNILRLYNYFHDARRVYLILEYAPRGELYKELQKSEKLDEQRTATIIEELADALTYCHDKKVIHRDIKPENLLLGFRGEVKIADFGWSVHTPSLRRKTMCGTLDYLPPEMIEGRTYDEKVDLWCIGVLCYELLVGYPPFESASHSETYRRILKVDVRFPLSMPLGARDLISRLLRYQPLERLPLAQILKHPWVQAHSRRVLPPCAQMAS

Structure (SMILES): CN1C(=O)[C@@H](N2CCc3c(nn(Cc4ccccc4)c3C(N)=O)C2=O)COc2cc(Cl)ccc21 [Compound 10, (S)-2-benzyl-6-(8-chloro-5-methyl-4-oxo-2,3,4,5-tetrahydrobenzo[b][1,4]oxazepin-3-yl)-7-oxo-4,5,6,7-tetrahydro-2H-pyrazolo[3,4-c]pyridine-3-carboxamide]
- remaining activity at 1 µM [1]: 100%
- remaining activity at 0.1 µM [2]: 72%
- remaining activity at 0.1 µM [3]: 75%
- remaining activity at 0.1 µM [4]: 67%
- remaining activity at 1 µM [5]: 100%
- remaining activity at 1 µM [6]: 100%
- remaining activity at 0.1 µM [7]: 73%
- remaining activity at 0.1 µM [8]: 100%
- remaining activity at 0.1 µM [9]: 100%
- remaining activity at 0.1 µM [10]: 95%
- remaining activity at 1 µM [11]: 100%
- remaining activity at 1 µM [12]: 100%
- remaining activity at 0.1 µM [13]: 86%
- remaining activity at 0.1 µM [14]: 68%
- remaining activity at 1 µM [15]: 100%
- remaining activity at 1 µM [16]: 100%
- remaining activity at 0.1 µM [17]: 89%
- remaining activity at 0.1 µM [18]: 84%
- remaining activity at 0.1 µM [19]: 65%
- remaining activity at 1 µM [20]: 100%
- remaining activity at 1 µM ([21]; RPS6KA4(Kin.Dom.1-N-terminal) (Entrez RPS6KA4)): 100%
- remaining activity at 1 µM ([21]; RPS6KA4(Kin.Dom.2-C-terminal) (Entrez RPS6KA4)): 100%
- remaining activity at 1 µM [22]: 100%
- remaining activity at 0.1 µM [23]: 65%
- remaining activity at 0.1 µM [24]: 87%
- remaining activity at 0.1 µM [25]: 73%
- remaining activity at 0.1 µM [26]: 91%
- remaining activity at 0.1 µM [27]: 68%
- remaining activity at 0.1 µM [28]: 71%
